The subject of assay [1] is methicillin-sensitive Staphylococcus aureus. Briefly: MIC by broth micro-dilution (CLSI), methicillin-sensitive S. aureus. Format: cell-based. The following applies: Staphylococcus aureus, ATCC 29213 / MSSA, MSSA S. aureus ATCC29213; read-out: MIC. Background: In broth dilution the organism is exposed to a series of concentrations in liquid medium.
For assay [2], the system named is extended spectrum β lactamase (ESBL) SHV18 producing Klebsiella pneumoniae. The assay can be described thus: MIC by broth micro-dilution (CLSI), ESBL SHV18 producing K. pneumoniae. The format is cell-based. The following applies: Klebsiella pneumoniae, ATCC700603, 22 h, ESBL +ve (SHV-18) K. pneumoniae ATCC700603; read-out: MIC.
Assay [3] concerns carbapenem sensitive Escherichia coli. Briefly: MIC by broth micro-dilution (CLSI), carbapenem sensitive E. coli. Format: cell-based. The following applies: Escherichia coli, ATCC25922, ESBL −ve E. coli ATCC25922; read-out: MIC.
Assay [4] deals with carbapenemase producing K. pneumoniae. Briefly: MIC by broth micro-dilution (CLSI), carbapenemase producing K. pneumoniae. Format: cell-based, Klebsiella pneumoniae. Particulars: Klebsiella pneumoniae, ATCCBAA1705, KPC-2 K. pneumoniae ATCC BAA-1705; read-out: MIC.
The test system of assay [5] is carbapenem sensitive Pseudomonas aeruginosa. Briefly: MIC by broth micro-dilution (CLSI), carbapenem sensitive P. aeruginosa. Format: cell-based. The following applies: Pseudomonas aeruginosa, ATCC27853, Meropenem susceptible P. aeruginosa ATCC27853; read-out: MIC.

Values after ≈ are worked out from the molar mass of the structure shown.

On to `C[C@@H](NC(=O)C(F)F)[C@H]1C(=O)N2C(C(=O)O)=C(S[C@@H]3CN[C@H](C(=O)N4CCNCC4)C3)[C@H](C)[C@H]12` [Example 120], for which the minimal inhibitory concentration (MIC) (in general, the smallest concentration in the dilution series that meets the test's criterion for growth inhibition) in assay [1] came to 2 µg/mL (≈ 3.99 µM); in assay [2], 4 µg/mL (≈ 7.98 µM); in assay [3], 0.5 µg/mL (≈ 0.997 µM); in assay [4] it was 4 µg/mL (≈ 7.98 µM); in assay [5], 4 µg/mL (≈ 7.98 µM).
For `C[C@@H](NC(=O)C(F)F)[C@H]1C(=O)N2C(C(=O)O)=C(S[C@@H]3CN[C@H](C(=O)N4CC[C@H](NC(=O)CN)C4)C3)[C@H](C)[C@H]12` [Example 121], the minimum inhibitory concentration (MIC) in assay [1] was 1 µg/mL (≈ 1.79 µM); in assay [2] it was 4 µg/mL (≈ 7.16 µM); in assay [3], 0.5 µg/mL (≈ 0.895 µM); in assay [4], 4 µg/mL (≈ 7.16 µM); in assay [5], 8 µg/mL (≈ 14.3 µM).
As for `C[C@@H](NC(=O)C(F)F)[C@H]1C(=O)N2C(C(=O)O)=C(S[C@@H]3CN[C@H](C(=O)N4CCC[C@H](N)C4)C3)[C@H](C)[C@H]12` [Example 122], the MIC in assay [1] turned out to be 1 µg/mL (≈ 1.94 µM); in assay [2], 4 µg/mL (≈ 7.76 µM); in assay [3], 1 µg/mL (≈ 1.94 µM); in assay [4] it was 4 µg/mL (≈ 7.76 µM); in assay [5], 16 µg/mL (≈ 31 µM).
In the case of `COC(=O)N[C@H]1CCN(C(=O)[C@@H]2C[C@H](SC3=C(C(=O)O)N4C(=O)[C@H]([C@@H](C)NC(=O)C(F)F)[C@H]4[C@H]3C)CN2)C1` [Example 123], the MIC came to 2 µg/mL (≈ 3.57 µM) in assay [1]; 2 µg/mL (≈ 3.57 µM) in assay [2]; 0.5 µg/mL (≈ 0.894 µM) in assay [3]; 4 µg/mL (≈ 7.15 µM) in assay [4]; 64 µg/mL (≈ 114 µM) in assay [5].
As to `C[C@@H](NC(=O)C(F)F)[C@H]1C(=O)N2C(C(=O)O)=C(S[C@@H]3CN[C@H](C(=O)N4CC[C@@H](N)C4)C3)[C@H](C)[C@H]12` [Example 124], the minimum inhibitory concentration (MIC) in assay [1] is 2 µg/mL (≈ 3.99 µM); in assay [2], 4 µg/mL (≈ 7.98 µM); in assay [3], 1 µg/mL (≈ 1.99 µM); in assay [4] it was 4 µg/mL (≈ 7.98 µM); in assay [5] it was 4 µg/mL (≈ 7.98 µM).
On to `C[C@@H](NC(=O)C(F)F)[C@H]1C(=O)N2C(C(=O)O)=C(S[C@@H]3CN[C@H](C(=O)N4CCO[C@H](CN)C4)C3)[C@H](C)[C@H]12` [Example 126], for which the MIC in assay [1] worked out at 2 µg/mL (≈ 3.76 µM); in assay [2], 8 µg/mL (≈ 15 µM); in assay [3], 2 µg/mL (≈ 3.76 µM); in assay [4], 8 µg/mL (≈ 15 µM); in assay [5] it was 16 µg/mL (≈ 30.1 µM).
Turning to `C[C@@H](NC(=O)C(F)F)[C@H]1C(=O)N2C(C(=O)O)=C(SC3CN[C@H](C(=O)N4CCO[C@@H](CN)C4)C3)[C@H](C)[C@H]12` (stereo partly shown) [Example 127], the MIC came out at 2 µg/mL (≈ 3.76 µM) in assay [1]; 8 µg/mL (≈ 15 µM) in assay [2]; 2 µg/mL (≈ 3.76 µM) in assay [3]; 16 µg/mL (≈ 30.1 µM) in assay [4]; 32 µg/mL (≈ 60.2 µM) in assay [5].
With `C[C@@H](NC(=O)CC#N)[C@H]1C(=O)N2C(C(=O)O)=C(S[C@@H]3CN[C@H](C(=O)N(C)C)C3)[C@H](C)[C@H]12` [Example 128], the MIC stood at 16 µg/mL (≈ 35.6 µM) in assay [1]; 8 µg/mL (≈ 17.8 µM) in assay [2]; 4 µg/mL (≈ 8.9 µM) in assay [3]; 8 µg/mL (≈ 17.8 µM) in assay [4]; 64 µg/mL (≈ 142 µM) in assay [5].
In the case of `CNCC(=O)N[C@H](C)[C@H]1C(=O)N2C(C(=O)O)=C(S[C@@H]3CN[C@H](C(=O)N4CC[C@H](N)C4)C3)[C@H](C)[C@H]12` [Example 129], the MIC in assay [1] was 32 µg/mL (≈ 64.7 µM); in assay [2], 32 µg/mL (≈ 64.7 µM); in assay [3], 4 µg/mL (≈ 8.09 µM); in assay [4], 8 µg/mL (≈ 16.2 µM); in assay [5], 8 µg/mL (≈ 16.2 µM).
In the case of `C[C@@H](NC(=O)C(F)F)[C@H]1C(=O)N2C(C(=O)O)=C(S[C@@H]3CN[C@H](C(=O)N[C@@H]4CCNC4)C3)[C@H](C)[C@H]12` [Example 130], the MIC stood at 2 µg/mL (≈ 3.99 µM) in assay [1]; 8 µg/mL (≈ 16 µM) in assay [2]; 1 µg/mL (≈ 1.99 µM) in assay [3]; 4 µg/mL (≈ 7.98 µM) in assay [4]; 32 µg/mL (≈ 63.8 µM) in assay [5].
For `C[C@@H](NC(=O)C(F)F)[C@H]1C(=O)N2C(C(=O)O)=C(S[C@@H]3CN[C@H](C(=O)N4CC(N)C4)C3)[C@H](C)[C@H]12` [Example 131], the MIC in assay [1] is 4 µg/mL (≈ 8.2 µM); in assay [2], 2 µg/mL (≈ 4.1 µM); in assay [3] it was 0.5 µg/mL (≈ 1.03 µM); in assay [4], 8 µg/mL (≈ 16.4 µM); in assay [5] it was 16 µg/mL (≈ 32.8 µM).

The values are drawn from US11180504B2 (ORCHID PHARMA LTD., priority 2016, dated 2021).
